Measurements from ChEMBL document CHEMBL1914349, “Porpoisamides A and B, two novel epimeric cyclic depsipeptides from a Florida Keys collection of Lyngbya sp” (Bioorg Med Chem, 2011).

How the values were obtained:
U2OS = assay: Antiproliferative activity against human U2OS cells after 48 hrs by MTT assay; format: functional, cell-based
HCT-116 = assay: Antiproliferative activity against human HCT116 cells after 48 hrs by MTT assay; format: functional, cell-based; conditions: HCT-116, 48 h

| IC50 (U2OS) [µM] | IC50 (HCT-116) [µM] | SMILES |
| --- | --- | --- |
| 28 | 25 | CCCCC[C@H]1NC(=O)[C@H](C)NC(=O)[C@@H](Cc2ccccc2)N(C)C(=O)[C@@H]2CCCN2C(=O)[C@H]([C@@H](C)CC)OC(=O)[C@H]1C [PORPOISAMIDE A] |
| 22 | 21 | CCCCC[C@H]1NC(=O)[C@H](C)NC(=O)[C@@H](Cc2ccccc2)N(C)C(=O)[C@@H]2CCCN2C(=O)[C@H]([C@@H](C)CC)OC(=O)[C@@H]1C [PORPOISAMIDE B] |
